These are literature values, as cited in EP0277754A1, “Method involving propylene amine oxime complexes” (AMERSHAM INTERNATIONAL plc, priority 1987, dated 1988).

The structures appear in SMILES notation.

With `CC(=NO)C(C)(C)NCCCNC(C)(C)C(C)=NO` [PnAO], the “retention in human brain” value was “retained only to a small extent”.
